“And” between values parts separate entries of the source, which are not always exact repeats. Equal entries are not always repeated. Where two headings read alike, the source gives them in different places.

The nature of data set [1]: Fever response in rabbits (pyrogenicity). It counts as in vivo. The settings on record: for PYROGENICITY Total Rise ° C., 3 rabbits: 10 ug/kg, cumulative rise ≥1.5 degree in three rabbits is considered pyrogenic; for PY[…]: rabbits. The procedure: The AGP compounds were also evaluated for their tendency to induce a fever response in rabbits. Each compound was formulated in 10% (v/v) ethanol/water solution at 100 mg/ml, then diluted with D5W to the desired concentration. The material was injected at 3 ml/kg body weight into 3 rabbits. The rise in core temperature of the rabbits was recorded.

A further data set concerns E.G7 (OVA) cells. The settings on record: s.c. 25 μg OVA in AGP preparation, spleen cells 21 days later.
Another data set concerns ovalbumin. The data set is described as follows: Stimulation of antiovalbumin antibody production. It counts as in vivo, BDF1 female mice. To be noted: 50 μg AGP + 50 μg ovalbumin; second immunization day 21; bled 14 days after second injection. The method, then:
BDF1 female mice (8 per group) were immunized with 0.2 ml of emulsions containing 50 μg of the AGPs +50 μg of ovalbumin. A second immunization was administered 21 days post primary. Each mouse was bled 14 days after the second injection.

The test system of the next data set is influenza A/HK/68. It counts as in vivo, ICR mice. The settings on record: mouse, in vivo.
The next data set has as its system TNF-α. Kind of data set: Cytokine induction in human whole blood ex vivo culture: TNF-α (ELISA). The settings on record: 4 hr. Type of data set: cell-based. The procedure: (§1) AGP compounds were solubilized in 10% EtOH-water and diluted to various concentrations. Fifty μl of each dilution were added to 450 μl of whole human blood. Controls were treated with culture media (RPMI). The reaction mixture was incubated at 37° C. for 4 hr with constant mixing on a rotator. Sterile PBS (1.5 ml) was added to the reaction mixture, the cells were centrifuged and the supernatents removed for cytokine testing. The concentration of TNF-α and IL-1β in each supernatent was determined using immunoassay ELISA kits from R&D Systems.
A general note: In an ELISA, binding on a coated surface is turned into a signal by an enzyme label.

A further data set concerns IL-1β. Kind of data set: Cytokine induction in human whole blood ex vivo culture: IL-1β (ELISA). Type of data set: cell-based. The settings on record: 4 hr. The method, then:
as §1

The next data set deals with tetanus toxoid. The settings on record: mouse, in vivo, sc.

Regarding “N-[(R)-3-Hexanoyloxytetradecanoyl]-O-[2-deoxy-4-O-phosphono-2-[(R)-3-hexanoyloxytetradecanoylamino]-3-O-[(R)-3-hexanoyloxytetradecanoyl]-α-d-glucopyranosyl]-l-serinamide Triethylammonium Salt [B29]”, the “PYROGENICITY Total Rise ° C., 3 rabbits” value in data set [1] came out at 0.7 °C. Besides, the “% Cytotoxicity” value in the data set on E.G7 (OVA) cells (E:T 12.5:1) amounted to 5%; in the data set with E.G7 (OVA) cells (E:T 25:1), 9%; in the data set with E.G7 (OVA) cells (E:T 50:1), 16%.

On to “3-Hydroxy-(S)-2-[(R)-3-tetradecanoyloxytetradecanoylamino]propyl 2-Deoxy-4-O-phosphono-2-[(R)-3-tetradecanoyloxytetradecanoylamino]-3-O-[(R)-3-tetradecanoyloxytetradecanoyl]-β-D-glucopyranoside Triethylammonium Salt [B1]”, for which, in the data set with ovalbumin, the “Anti-ovalbumin IgG1 T/C” value is on record as 0.5, the “Anti-ovalbumin IgG1 Titer” value was determined as 763, the “Anti-ovalbumin IgG2a T/C” value is on record as 0.2 and the “Anti-ovalbumin IgG2a Titer” value was found to be 56. Also, in the data set on ovalbumin, the “Anti-ovalbumin IgG2b T/C” value turned out to be 0.8, the “Anti-ovalbumin IgG2b Titer” value was determined as 188, the “Anti-ovalbumin IgM T/C” value came to 0.8 and the “Anti-ovalbumin IgM Titer” value was 150. In the data set on ovalbumin, the “Anti-ovalbumin Total Ig T/C” value came out at 0.5 and the “Anti-ovalbumin Total Ig Titer” value is on record as 119. Further, in the data set on influenza A/HK/68, the “Percent Survival” value amounted to 40%, the “Titer−1 IgG1” value is on record as 6400, the “Titer−1 IgG2a” value is 1600 and the “Titer−1 IgG2b” value was 15600. The “Titer−1 Total IgG” value with influenza A/HK/68 is on record as 12,800. In data set [1], the “PYROGENICITY Total Rise ° C., 3 rabbits” value stood at 0.1 °C. Further, in the data set on E.G7 (OVA) cells (E:T 12.5:1), the “% Cytotoxicity” value worked out at 15%. In the data set with E.G7 (OVA) cells (E:T 25:1), the “% Cytotoxicity” value is given as 24%. In addition, the “% Cytotoxicity” value in the data set on E.G7 (OVA) cells (E:T 50:1) is given as 34%.

`CCCCCCCCCCCCCC(=O)O[C@H](CCCCCCCCCCC)CC(=O)N[C@H]1[C@H](OC[C@H](NC(=O)C[C@@H](CCCCCCCCCCC)OC(=O)CCCCCCCCCCCCC)C(=O)OC)O[C@H](CO)[C@@H](OP(=O)(O)O)[C@@H]1OC(=O)C[C@@H](CCCCCCCCCCC)OC(=O)CCCCCCCCCCCCC.CCN(CC)CC` [B26, N-[(R)-3-Tetradecanoyloxytetradecanoyl]-O-[2-deoxy-4-O-phosphono-2-[(R)-3-tetradecanoyloxytetradecanoylamino]-3-O-[(R)-3-tetradecanoyloxytetradecanoyl]-β-D-glucopyranosyl]-1-serine Methyl Ester Triethylammoniun Salt] registered a TNF-α in the data set on TNF-α (Dosage 1 μg, 37° C., Table 14) of 38.85 pg/mL. In the data set on TNF-α (Dosage 5 μg, 37° C., Table 14), the TNF-α was found to be 75.62 pg/mL. The same compound registered a TNF-α with TNF-α (Dosage 10 μg, 37° C., Table 14) of 254.94 pg/mL. In the data set on TNF-α (Dosage 20 μg, 37° C., Table 14), this compound gave a TNF-α of 498.90 pg/mL. In the data set on IL-1β (Dosage 1 μg, 37° C., Table 14), this compound came in with an IL-1β of 3.90 pg/mL. In the data set on IL-1β (Dosage 5 μg, 37° C., Table 14), this compound registered an IL-1β of 9.89 pg/mL. Besides, in the data set on IL-1β (Dosage 10 μg, 37° C., Table 14), the IL-1β came to 25.34 pg/mL. Besides, in the data set with IL-1β (Dosage 20 μg, 37° C., Table 14), the IL-1β amounted to 33.25 pg/mL. Besides, in data set [1], the “PYROGENICITY Total Rise ° C., 3 rabbits” value turned out to be 1.7 °C and the “PY[…]” value was 5 µg/kg. Also, in the data set with tetanus toxoid, the “Anti-tetanus toxoid IgG1 T/C” value was determined as 16.9, the “Anti-tetanus toxoid IgG1 Titer” value is given as 25,200, the “Anti-tetanus toxoid IgG2a T/C” value is recorded as 29.3 and the “Anti-tetanus toxoid IgG2a Titer” value is 440. Moreover, in the data set with tetanus toxoid, the “Anti-tetanus toxoid IgG2b T/C” value stood at 42.6, the “Anti-tetanus toxoid IgG2b Titer” value is listed as 2,260, the “Anti-tetanus toxoid IgM T/C” value is given as 1.1 and the “Anti-tetanus toxoid IgM Titer” value was 600. Besides, in the data set with tetanus toxoid, the “Anti-tetanus toxoid Total Ig T/C” value was determined as 10.5 and the “Anti-tetanus toxoid Total Ig Titer” value is on record as 2,490. In addition, in the data set on E.G7 (OVA) cells (E:T 12.5:1), the “% Cytotoxicity” value is on record as 4%. Also, the “% Cytotoxicity” value in the data set with E.G7 (OVA) cells (E:T 25:1) was determined as 8%. Also, the “% Cytotoxicity” value with E.G7 (OVA) cells (E:T 50:1) was found to be 14%.

Consider “3-Hydroxy-(R)-2-[(R)-3-tetradecanoyloxytetradecanoylamino]propyl 2-Deoxy-4-O-phosphono-2-[(R)-3-tetradecanoyloxytetradecanoylamino]-3-O-[(R)-3-tetradecanoyloxytetradecanoyl]-β-D-glucopyranoside Triethylammonium Salt [B2]”, for which, in the data set with ovalbumin, the “Anti-ovalbumin IgG1 T/C” value is 5.0, the “Anti-ovalbumin IgG1 Titer” value is recorded as 8300, the “Anti-ovalbumin IgG2a T/C” value worked out at 2.5 and the “Anti-ovalbumin IgG2a Titer” value is given as 825. Also, in the data set on ovalbumin, the “Anti-ovalbumin IgG2b T/C” value is recorded as 2.3, the “Anti-ovalbumin IgG2b Titer” value is listed as 550, the “Anti-ovalbumin IgM T/C” value stood at 0.9 and the “Anti-ovalbumin IgM Titer” value stood at 175. Also, in the data set with ovalbumin, the “Anti-ovalbumin Total Ig T/C” value is on record as 2.5 and the “Anti-ovalbumin Total Ig Titer” value amounted to 563. In data set [1], the “PYROGENICITY Total Rise ° C., 3 rabbits” value stood at 3.6 °C and the “PY[…]” value was 2.5 to 5 µg/kg. Moreover, in the data set on E.G7 (OVA) cells (E:T 12.5:1), the “% Cytotoxicity” value is listed as 6%. Moreover, the “% Cytotoxicity” value in the data set with E.G7 (OVA) cells (E:T 25:1) was found to be 12%. The “% Cytotoxicity” value with E.G7 (OVA) cells (E:T 50:1) turned out to be 21%.

In the case of “N-[(R)-3-Octanoyloxytetradecanoyl]-O-[2-deoxy-4-O-phosphono-2-[(R)-3-octanoyloxytetradecanoylamino]-3-O-[(R)-3-octanoyloxytetradecanoyl]-β-D-glucopyranosyl]-L-serine Triethylammonium Salt [B17]”, the “Percent Survival” value with influenza A/HK/68 was found to be 40%. Besides, the “Titer^−1 IgG1” value with influenza A/HK/68 came out at 3200. Also, the “Titer^−1 IgG2a” value in the data set on influenza A/HK/68 was determined as 3200. In addition, the “Titer^−1 IgG2b” value in the data set with influenza A/HK/68 was 1600. Besides, the “Titer^−1 Total IgG” value in the data set with influenza A/HK/68 was determined as 6400. In addition, the TNF-α in the data set on TNF-α (Dosage 1000 ng/ml, Table 19) amounted to 2.6 pg/mL; in the data set with TNF-α (Dosage 5000 ng/ml, Table 19) it was 2.2 pg/mL; in the data set on TNF-α (Dosage 10,000 ng/ml, Table 19) it was 2.8 pg/mL. Further, the IL-1β in the data set on IL-1β (Dosage 1000 ng/ml, Table 19) was 0.2 pg/mL; in the data set with IL-1β (Dosage 5000 ng/ml, Table 19) it was 0 pg/mL; in the data set with IL-1β (Dosage 10,000 ng/ml, Table 19), 0 pg/mL. In data set [1], the “PYROGENICITY Total Rise ° C., 3 rabbits” value was 3.4 °C. The “% Cytotoxicity” value in the data set on E.G7 (OVA) cells (E:T 12.5:1) stood at 15%; in the data set with E.G7 (OVA) cells (E:T 25:1) it was 26%; in the data set on E.G7 (OVA) cells (E:T 50:1), 39%.

In the case of “N-[(R)-3-Tetradecanoyloxytetradecanoyl]-O-[2-Deoxy-4-O-phosphono-2-[(R)-3-tetradecanoyloxytetradecanoylamino]-3-O-[(R)-3-tetradecanoyloxytetradecanoyl]-β-D-glucopyranosyl]-L-serine Triethylammonium Salt [B11]”, in the data set on ovalbumin, the “Anti-ovalbumin IgG1 T/C” value came to 1.6, the “Anti-ovalbumin IgG1 Titer” value amounted to 2650, the “Anti-ovalbumin IgG2a T/C” value was 1.7 and the “Anti-ovalbumin IgG2a Titer” value is given as 550. In addition, in the data set with ovalbumin, the “Anti-ovalbumin IgG2b T/C” value amounted to 1.6, the “Anti-ovalbumin IgG2b Titer” value is 375, the “Anti-ovalbumin IgM T/C” value turned out to be 1.3 and the “Anti-ovalbumin IgM Titer” value came out at 250. In the data set on ovalbumin, the “Anti-ovalbumin Total Ig T/C” value was found to be 0.7 and the “Anti-ovalbumin Total Ig Titer” value amounted to 150. Further, in the data set on influenza A/HK/68, the “Percent Survival” value came out at 30%, the “Titer^−1 IgG1” value is given as 200, the “Titer^−1 IgG2a” value came out at 1600 and the “Titer^−1 IgG2b” value was found to be 400. Further, in the data set on influenza A/HK/68, the “Titer^−1 Total IgG” value is given as 1600. This compound also displayed a TNF-α in the data set on TNF-α (Dosage 100 ng/ml, Table 17) of 127 pg/mL. In the data set on TNF-α (Dosage 500 ng/ml, Table 17), this compound yielded a TNF-α of 125 pg/mL. Also, the TNF-α with TNF-α (Dosage 1000 ng/ml, Table 17) came to 115 pg/mL. The same compound had a TNF-α in the data set with TNF-α (Dosage 5000 ng/ml, Table 17) of 139 pg/mL. Also, in the data set on TNF-α (Dosage 10,000 ng/ml, Table 17), the TNF-α was 181 pg/mL. In addition, the IL-1β in the data set on IL-1β (Dosage 100 ng/ml, Table 17) came to 59.8 pg/mL. In addition, the IL-1β in the data set with IL-1β (Dosage 500 ng/ml, Table 17) amounted to 55.8 pg/mL. Further, the IL-1β in the data set with IL-1β (Dosage 1000 ng/ml, Table 17) amounted to 54.5 pg/mL. The same compound yielded an IL-1β in the data set on IL-1β (Dosage 5000 ng/ml, Table 17) of 61.7 pg/mL. For the same compound, in the data set with IL-1β (Dosage 10,000 ng/ml, Table 17), the IL-1β amounted to 62.3 pg/mL. For the same compound, the “PY[…]” value in data set [1] is 0.3 to 0.6 µg/kg. Also, in the data set on tetanus toxoid, the “Anti-tetanus toxoid IgG1 T/C” value is 1.86, the “Anti-tetanus toxoid IgG1 Titer” value is 400,000, the “Anti-tetanus toxoid IgG2a Titer” value was 10,450 and the “Anti-tetanus toxoid IgG2a titer” value came out at 5900. Also, in the data set on tetanus toxoid, the “Anti-tetanus toxoid IgG2b Titer” value is recorded as 26,800; the “Anti-tetanus toxoid IgG2b titer” value was found to be 8400; the “Anti-tetanus toxoid IgM T/C” value is 4.75 and 3.3; the “Anti-tetanus toxoid IgM Titer” value was 7,600. In the data set on tetanus toxoid, the “Anti-tetanus toxoid IgM titer” value is on record as 5120, the “Anti-tetanus toxoid Total IgG T/C” value is given as 3.6 and the “Anti-tetanus toxoid Total IgG Titer” value is listed as 23,200. The “% Cytotoxicity” value with E.G7 (OVA) cells (E:T 12.5:1) was 5%. In addition, the “% Cytotoxicity” value in the data set on E.G7 (OVA) cells (E:T 25:1) was 8%. Moreover, the “% Cytotoxicity” value in the data set on E.G7 (OVA) cells (E:T 50:1) was 14%.

For the origin of these results see US7541020B2, “Aminoalkyl glucosaminide phosphate compounds and their use as adjuvants and immunoeffectors” (priority 1997, dated 2009).
